Experimental findings from patent publication US20230108049A1, “ORAL FAST-DISPERSING DOSAGE FORM OF RIMEGEPANT” (BIOHAVEN PHARMACEUTICAL HOLDING COMPANY LTD., priority 2020, published 2023) are described below.

Series [1] can be described thus: Excretion after oral [14C]-rimegepant. In kind it is in vivo, human. The following applies: oral, healthy male subjects. An excerpt: Following oral administration of [^14C]-rimegepant to healthy male subjects, 78% of the total radioactivity was recovered in feces and 24% in urine. Unchanged rimegepant is the major single component in excreted feces (42%) and urine (51%).

The nature of a further series: Solubility in water. The following applies: white to off-white crystalline solid. In kind it is physicochemical.

For `N[C@@H]1c2cccnc2[C@H](OC(=O)N2CCC(n3c(=O)[nH]c4ncccc43)CC2)CC[C@H]1c1cccc(F)c1F` [[^14C]-rimegepant], in series [1], the “total radioactivity recovered in feces” value was 78% and the “total radioactivity recovered in urine” value is given as 24%.
`N[C@@H]1c2cccnc2[C@H](OC(=O)N2CCC(n3c(=O)[nH]c4ncccc43)CC2)CC[C@H]1c1cccc(F)c1F` [rimegepant hemisulfate, (5S,6S,9R)-5-amino-6-(2,3-difluorophenyl)-6,7,8,9-tetrahydro-5H-cyclohepta[b]pyridin-9-yl 4-(2-oxo-2,3-dihydro-1H-imidazo[4,5-b]pyridin-1-yl)-1-piperidinecarboxylate hemisulfate sesquihydrate]: the solubility in water result in the series “Solubility in water” is given as “slightly soluble in water”.
